# Measurements published in patent US20210275514A1, “COMPOUNDS FOR USE IN TREATING KIDNEY DISORDERS” (Hoffmann-La Roche Inc., priority 2018, published 2021).
# “Also recorded” adds a separate entry of the source.
# Legend:
# [1] = tested on: ADR-induced nephropathy in Balb/c mice; experiment: Adriamycin-induced kidney damage, dose finding experiment, 35 days; format: in vivo, mouse; conditions: for TOTAL CHOL (blood) / TRIGLYCERIDES (blood): 35 days after ADR injection; for Albuminuria / proteinuria / Body weight loss: 5 weeks after ADR
# Procedure: First, we performed a preliminary experiment to explore the best dose of compounds to be used and to determine if other experimental variables needed to be adjusted. In this experiment, 30 mice received a single dose of Adriamycin (Sigma-Aldrich, 12 mg/Kg, via tail vein injection) and then were randomly separated into 6 groups of 5 mice each. Another 5 mice were injected with 0.9% NaCl by the same route and were used as a no-kidney injury baseline group. Starting 24 h after ADR injection, vehicle, or different doses of compounds, were given once daily by oral gavage for 35 days. The doses of compounds tested were the following: LXR agonist (Cpd C, 10 mg/Kg); ABCA1 inducers Cpd A and Cpd G (30 mg/Kg and 100 mg/Kg). Body weight measurements and spot urine collection was done once a week. Animals were sacrificed 35 days after ADR injection (FIG. 1).
# (§1) Spot urine samples were collected for all mice at baseline and time of sacrifice. Urinary albumin and creatinine were determined using an albumin ELISA kit (Bethyl laboratories) and a colorimetric assay for creatinine determination (Stanbio). Albuminuria was calculated and expressed as μg of albumin divided by mg of creatinine. For diabetic mouse model, weight and glycaemia were measured on a bi-weekly basis.
# [2] = tested on: ADR-injected Balb/c mice; experiment: Toxicity by serology in ADR-injected mice (WBC, hemoglobin, hematocrit, transaminases); format: in vivo, mouse; conditions: for ALT / HCT / HEMOGLOBIN / WBC: 35-day treatment, ADR-injected; for liver toxicity and blood dyscrasias (serology): all treated animals
# From the text: We next investigated compounds C, A and G toxicity by serology. More specifically, we determined hematocrit, hemoglobin white cell blood count and liver transaminases ALT and AST of all treated animals to determine if liver toxicity and blood dyscrasias were associated with the compounds.
# [3] = tested on: ADR-induced nephropathy in Balb/c mice; experiment: Adriamycin-induced kidney damage, second experiment, 28 days; format: in vivo, mouse; conditions: for TOTAL CHOL (blood) / TRIGLYCERIDES (blood): 28 days after ADR injection; for Albuminuria / Body weight loss: 4 weeks after ADR
# Procedure: A second experiment was repeated to confirm the improvement of renal function attained with the doses of Cpd A and G in the first experiment. Briefly, 30 female Balb/c mice of 8 weeks age were injected with 12 mg/Kg of ADR by via tail vein and the mice were randomly distributed into 5 groups of 6 animals each. Animals were given vehicle or compounds by oral gavage once daily for 28 days starting one day after ADR injection. The following doses of compounds were tested: Cpd C, 10 mg/Kg/day; Cpd A, 30 mg/Kg/day and Cpd G, 30 mg/Kg/day and 100 mg/Kg/day. A group of 5 animals that received saline solution via tail vein injection and were treated with vehicle were used as healthy baseline control. Body weight measurements and spot urine collection was done once a week. Animals were sacrificed 28 days after ADR injection (FIG. 2).
# as §1
# At time of sacrifice blood was collected in heparinized tubes and mice were perfused via left ventricle perfusion with isotonic saline solution. Kidney cortex was carefully excised and further sectioned for the fallowing analysis: determination of podocyte number, lipid droplet staining, electron microscopy (EM), renal lipids content assays, PAS& HE staining for pathological evaluation.
# Lipid droplet staining Filtered Oil-Red O-Isopropanol solution (Electron Microscopy Science, PA) was diluted with water (6:4). 4 μm kidney sections were incubated with 100 μl freshly prepared Oil-Red O solution (ORO) for 15 minutes and counterstained with Hematoxylin Harris Hg Free (VWR, PA) to detect lipid deposition. Glomeruli staining was evaluated using a light microscope (Olympus BX 41, Tokyo, Japan).
# Renal lipids species assays. Kidney cortex sections were snap frozen and utilized for lipid extraction and cholesterol content determination. The tissue was homogenized in 2 mM potassium phosphate buffer in a glass douncer on ice. Lipids in 100 μl homogenate (˜5-10 mg tissue) were extracted with 1 ml hexane:isopropanol (3:2) for two sequential 30-minute extractions. The solvent containing lipids was then dried in Nitrogen atmosphere. Lipids were then reconstituted using isopropanol: NP-40 (9:1) and cholesterol content was quantified using the Amplex red cholesterol assay kit (Invitrogen) according to the manufacturers protocol. Triglycerides in lipid extracts were assayed with a colorimetric kit according to manufacturer's instructions (Cayman). Total cholesterol and cholesterol esters were assayed using an enzymatic fluorometric method. For total cholesterol renal lipid extracts were diluted in assay buffer (100 mM potassium phosphate, 50 mM NaCl, 5 mM cholic acid, 0.1% […], pH 7.4) and incubated with same buffer supplemented with a final concentration of 1 U/ml cholesterol oxidase, 1 U/ml cholesterol esterase, 1 U/ml horseradish peroxidase, and 75 μM Amplex Red. The reactions were incubated at 37° C. for 30 min in a black opaque 96 well plate (Greiner) and fluorescence was measured in a microplate reader (Spectramax i3X, Molecular Devices) using 530 nm excitation and 580 emission.
# Cholesterol esters were assayed using a direct method described by Mizoguchi et al (Mizoguchi, 2004). Briefly 150 μl of FC decomposition reagent (45 U/ml bovine catalase and 1 U/ml cholesterol oxidase, in assay buffer described above) was added to 25 μl of sample containing up to 1 mM total cholesterol. Free cholesterol was allowed to decompose overnight at 37° C. and then 75 μl of 4× cholesterol ester detection reagent (1 U/ml cholesterol oxidase, 4 U/ml cholesterol esterase, 24 U/ml horseradish peroxidase, 300 μM Amplex Red) was added. […]
# [4] = tested on: ABCA1; experiment: ApoA1-mediated cholesterol efflux in differentiated podocytes; format: cell-based, human; conditions: 18 h
# Procedure: Human podocytes differentiated for 13 days were labeled with 1 μCi/ml of [^3H]-cholesterol in RPMI media with 2% FBS for 24 h. Cells were then washed with PBS and incubated with equilibration media (RPMI-0.2% fat free-BSA) supplemented with vehicle or compounds Cpd C (1 μM), Cpd A (1 μM, 5 μM) and Cpd G (1 μM, 5 μM, 10 μM) for 18 h. Cells were then washed with PBS, and incubated with equilibration media with or without 20 μg/ml of human ApoA1 for 18 h at 37° C., 5% CO2. Media was collected, spun at 12,000×g for 5 min and the radioactivity of the 200 μl aliquot was counted by liquid scintillation. Cells were washed with PBS, lysed with 250 μl 0.1% SDS, 0.1 M NaOH and the radioactivity in 100 μl aliquot was measured by liquid scintillation. Cholesterol efflux was calculated as the % of labeled cholesterol that moved from the cell to the media by the formula:
# Efflux (%)=100×{(cpm media)/[(cpm media)+(cpm lysate)]}
# ApoA1-mediated cholesterol efflux was calculated as the difference between the efflux in the presence or absence of ApoA1. All treatments were done in duplicate. More than 3 independent experiments were performed.
# [5] = 100 mg/Kg once daily oral gavage
# [6] = 30 mg/Kg once daily oral gavage
compound,measurement,setting,value
"O=C(N[C@@H]1CCCC[C@H]1O)c1cnc(OCC(F)(F)F)c(-c2ccc(Cl)c(Cl)c2)c1 [Cpd G, 5-(3,4-dichloro-phenyl)-N-((1R,2R)-2-hydroxy-cyclohexyl)-6-(2,2,2-trifluoro-ethoxy)-nicotinamide]",TOTAL CHOL (blood),[1]; 30 mg/Kg,136.3 ± 38.9 mg/dL
same,TRIGLYCERIDES (blood),[1]; 30 mg/Kg,51 ± 16.8 mg/dL
same,Albuminuria / proteinuria,[1]; [5],attenuated; also recorded: reduced
same,Body weight loss,[1]; [5],partially attenuated; also recorded: prevented
same,TOTAL CHOL (blood),[1]; 100 mg/Kg,109.7 ± 11.0 mg/dL
same,TRIGLYCERIDES (blood),[1]; 100 mg/Kg,62 ± 16.5 mg/dL
same,ALT,[2]; 30 mg/Kg,323.4 ± 87.1 U/L
same,HCT,[2]; 30 mg/Kg,49.5 ± 4.4%
same,HEMOGLOBIN,[2]; 30 mg/Kg,12.9 ± 1.0 g/dL
same,WBC,[2]; 30 mg/Kg,6.3 ± 1.2 ×10^∧3 cells/ul
same,ALT,[2]; 100 mg/Kg,212.4 ± 91.1 U/L
same,HCT,[2]; 100 mg/Kg,49.6 ± 2.3%
same,HEMOGLOBIN,[2]; 100 mg/Kg,13.1 ± 0.6 g/dL
same,WBC,[2]; 100 mg/Kg,4.7 ± 1.6 ×10^∧3 cells/ul
same,liver toxicity and blood dyscrasias (serology),[2],No apparent signs of such toxicities
same,ALT,"[2]; first ALT line (r15), 30 mg/Kg",181.6 ± 69.0 U/L
same,ALT,"[2]; first ALT line (r15), 100 mg/Kg",191.4 ± 79.9 U/L
same,TOTAL CHOL (blood),[3]; 30 mg/Kg,112.0 ± 13.6 mg/dL
same,TRIGLYCERIDES (blood),[3]; 30 mg/Kg,120 ± 18.8 mg/dL
same,Albuminuria,[3]; 100 mg/Kg once daily,significantly reduce; also recorded: reduced
same,Body weight loss,[3]; 100 mg/Kg once daily,significantly reduce; also recorded: reduced
same,deposition of lipid droplets in the kidneys (Oil Red O staining),"[3]; 100 mg/Kg, 28 days",significantly reduced
same,TOTAL CHOL (blood),[3]; 100 mg/Kg,101.1 ± 12.8 mg/dL
same,TRIGLYCERIDES (blood),[3]; 100 mg/Kg,121 ± 19.3 mg/dL
same,global glomerular sclerosis (blind pathological study of kidney cortex),"[3]; 100 mg/Kg/day, 4 weeks",reduction
same,interstitial inflammation,"[3]; 100 mg/Kg/day, 4 weeks",reduction
same,podocyte hyperplasia,"[3]; 100 mg/Kg/day, 4 weeks",reduction
same,podocyte hypertrophy,"[3]; 100 mg/Kg/day, 4 weeks",reduction
same,segmental glomerular sclerosis,"[3]; 100 mg/Kg/day, 4 weeks",reduction
same,tubular microcysts,"[3]; 100 mg/Kg/day, 4 weeks",reduction
same,esterified cholesterol content in kidney cortex,"[3]; 28 days, normalized to total protein",reduces accumulation of esterified cholesterol; also recorded: significantly reduced
same,physical appearance,"[3]; optimal dose (100 mg/Kg), 3rd and 4th week of treatment",better physical appearance
same,ApoA1-mediated cholesterol efflux,[4]; 10 μM,increase ApoA1-mediated cholesterol efflux; also recorded: Significant increase
"O=C(N[C@@H]1CCCC[C@H]1O)c1ccc(OCC(F)(F)F)c(-c2ccc(Cl)c(Cl)c2)n1 [Cpd A, 6-(3,4-Dichlorophenyl)-N-[(1R,2R)-2-hydroxycyclohexyl]-5-(2,2,2-trifluoroethoxy)pyridine-2-carboxamide]",Albuminuria / proteinuria,[1]; [6],attenuated; also recorded: reduced
same,Body weight loss,[1]; [6],partially attenuated; also recorded: prevented
same,TOTAL CHOL (blood),[1]; 30 mg/Kg,86.3 ± 8.8 mg/dL
same,TRIGLYCERIDES (blood),[1]; 30 mg/Kg,57.6 ± 15.5 mg/dL
same,TOTAL CHOL (blood),[1]; 100 mg/Kg,226.7 ± 173.4 mg/dL
same,TRIGLYCERIDES (blood),[1]; 100 mg/Kg,47.3 ± 7.5 mg/dL
same,ALT,[2]; 30 mg/Kg,365.3 ± 181.2 U/L
same,HCT,[2]; 30 mg/Kg,51.8 ± 3.3%
same,HEMOGLOBIN,[2]; 30 mg/Kg,13.9 ± 1.1 g/dL
same,WBC,[2]; 30 mg/Kg,4.6 ± 1.3 ×10^∧3 cells/ul
same,liver toxicity and blood dyscrasias (serology),[2],No apparent signs of such toxicities
same,ALT,"[2]; first ALT line (r15), 30 mg/Kg",339.3 ± 274.8 U/L
same,Albuminuria,[3]; 30 mg/Kg once daily,significantly reduce; also recorded: reduced
same,Body weight loss,[3]; 30 mg/Kg once daily,significantly reduce; also recorded: reduced
same,TOTAL CHOL (blood),[3]; 30 mg/Kg,104.0 ± 31.6 mg/dL
same,TRIGLYCERIDES (blood),[3]; 30 mg/Kg,107 ± 23.9 mg/dL
same,ApoA1-mediated cholesterol efflux,[4]; 5 μM,increase ApoA1-mediated cholesterol efflux; also recorded: Significant increase
"Cc1oc(-c2cccc(C(F)(F)F)c2)nc1Cn1c(C)cc2cc(C(O)(C(F)(F)F)C(F)(F)F)ccc21 [Cpd C, 1,1,1,3,3,3-Hexafluoro-2-{2-methyl-1-[5-methyl-2-(3-trifluoromethyl-phenyl)-oxazol-4-ylmethyl]-1H-indol-5-yl}-propan-2-ol, reference compound]",Albuminuria / proteinuria,[1]; 10 mg/Kg once daily oral gavage,No significant differences
same,TOTAL CHOL (blood),[1]; 10 mg/Kg,117.4 ± 66.8 mg/dL
same,TRIGLYCERIDES (blood),[1]; 10 mg/Kg,57.2 ± 6.3 mg/dL
same,ALT,[2]; 10 mg/Kg,213.0 ± 151.7 U/L
same,HCT,[2]; 10 mg/Kg,44.8 ± 1.5%
same,HEMOGLOBIN,[2]; 10 mg/Kg,12.2 ± 1.0 g/dL
same,WBC,[2]; 10 mg/Kg,7.6 ± 4.4 ×10^∧3 cells/ul
same,liver toxicity and blood dyscrasias (serology),[2],No apparent signs of such toxicities
same,ALT,"[2]; first ALT line (r15), 10 mg/Kg",299.5 ± 365.0 U/L
same,TOTAL CHOL (blood),[3]; 10 mg/Kg,119.8 ± 19.9 mg/dL
same,TRIGLYCERIDES (blood),[3]; 10 mg/Kg,110 ± 53.5 mg/dL
same,ApoA1-mediated cholesterol efflux,[4]; 1 μM,increase ApoA1-mediated cholesterol efflux; also recorded: Significant increase
